Legend:
[1] = system: ABH3; details: U87-MG, U373-MG, HT-1080; western blot; ref SI 11; cited from earlier work
[2] = system: KDM5B; details: read-out: IC50 KDM5B (14CO2 radioactive); [2OG] 40 µM; ref SI 8 (main 64); cited from earlier work
[3] = target: T1, KDM6A (Homo sapiens, UniProt O15550); details: read-out: Ki (calculated) KDM6A; Cheng-Prussoff from reported IC50; ref SI 8
[4] = target: T2, KDM6B (Homo sapiens, UniProt O15054); details: read-out: IC50 KDM6B; [2OG] 200 µM; ref SI 8 (main 64); cited from earlier work
T2 sequence (O15054 whole entry): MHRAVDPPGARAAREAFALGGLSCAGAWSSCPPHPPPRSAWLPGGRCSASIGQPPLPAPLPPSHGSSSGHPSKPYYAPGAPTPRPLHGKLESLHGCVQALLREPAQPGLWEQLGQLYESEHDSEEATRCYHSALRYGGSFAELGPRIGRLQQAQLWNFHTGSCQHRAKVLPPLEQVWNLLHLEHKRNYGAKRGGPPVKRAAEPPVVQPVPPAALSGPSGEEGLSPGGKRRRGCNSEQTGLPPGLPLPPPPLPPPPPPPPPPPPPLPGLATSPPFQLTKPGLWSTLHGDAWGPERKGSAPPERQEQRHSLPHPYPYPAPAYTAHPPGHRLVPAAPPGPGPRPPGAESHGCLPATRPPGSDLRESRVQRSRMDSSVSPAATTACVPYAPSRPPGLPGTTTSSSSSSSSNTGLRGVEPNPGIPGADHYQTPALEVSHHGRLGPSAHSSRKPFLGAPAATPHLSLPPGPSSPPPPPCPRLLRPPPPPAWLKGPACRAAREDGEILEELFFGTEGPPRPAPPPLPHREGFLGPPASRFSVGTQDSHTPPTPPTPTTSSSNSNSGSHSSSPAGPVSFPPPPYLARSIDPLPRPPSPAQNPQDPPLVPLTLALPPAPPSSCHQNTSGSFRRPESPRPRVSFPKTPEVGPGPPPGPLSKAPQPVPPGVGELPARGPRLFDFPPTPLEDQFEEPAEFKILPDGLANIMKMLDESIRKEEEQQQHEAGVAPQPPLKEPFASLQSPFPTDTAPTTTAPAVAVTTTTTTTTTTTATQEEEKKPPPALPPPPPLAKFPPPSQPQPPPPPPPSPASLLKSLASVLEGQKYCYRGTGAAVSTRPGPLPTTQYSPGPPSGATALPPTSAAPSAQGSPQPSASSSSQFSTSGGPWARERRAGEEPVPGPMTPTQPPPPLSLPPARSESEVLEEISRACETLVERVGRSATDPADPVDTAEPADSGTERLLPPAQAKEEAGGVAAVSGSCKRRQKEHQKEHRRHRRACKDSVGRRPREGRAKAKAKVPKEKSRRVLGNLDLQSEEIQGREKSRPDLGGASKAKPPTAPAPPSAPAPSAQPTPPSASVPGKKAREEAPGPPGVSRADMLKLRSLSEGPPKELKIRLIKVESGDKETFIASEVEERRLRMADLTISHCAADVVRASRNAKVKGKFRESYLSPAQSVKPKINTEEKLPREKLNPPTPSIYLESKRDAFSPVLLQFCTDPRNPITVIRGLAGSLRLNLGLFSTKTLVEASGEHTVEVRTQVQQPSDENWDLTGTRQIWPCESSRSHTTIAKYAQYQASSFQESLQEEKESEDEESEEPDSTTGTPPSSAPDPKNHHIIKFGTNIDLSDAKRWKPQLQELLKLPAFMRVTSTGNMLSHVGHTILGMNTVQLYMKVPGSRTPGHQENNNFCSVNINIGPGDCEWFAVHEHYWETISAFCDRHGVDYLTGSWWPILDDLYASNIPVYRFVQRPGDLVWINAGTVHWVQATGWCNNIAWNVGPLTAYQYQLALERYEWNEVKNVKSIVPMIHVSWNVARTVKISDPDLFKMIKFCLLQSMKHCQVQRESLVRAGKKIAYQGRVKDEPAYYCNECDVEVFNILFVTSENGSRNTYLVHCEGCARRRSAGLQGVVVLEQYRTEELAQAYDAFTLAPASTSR

[5] = target: T1, KDM6A; details: read-out: IC50 KDM6A; [2OG] […]; ref SI 8 (main 64); cited from earlier work
[6] = target: T2, KDM6B; details: read-out: Ki (calculated) KDM6B; Cheng-Prussoff from reported IC50; ref SI 8
[7] = target: T3, KDM4B (Homo sapiens, UniProt O94953); assay: biochemical
T3 sequence (O94953 1-1096): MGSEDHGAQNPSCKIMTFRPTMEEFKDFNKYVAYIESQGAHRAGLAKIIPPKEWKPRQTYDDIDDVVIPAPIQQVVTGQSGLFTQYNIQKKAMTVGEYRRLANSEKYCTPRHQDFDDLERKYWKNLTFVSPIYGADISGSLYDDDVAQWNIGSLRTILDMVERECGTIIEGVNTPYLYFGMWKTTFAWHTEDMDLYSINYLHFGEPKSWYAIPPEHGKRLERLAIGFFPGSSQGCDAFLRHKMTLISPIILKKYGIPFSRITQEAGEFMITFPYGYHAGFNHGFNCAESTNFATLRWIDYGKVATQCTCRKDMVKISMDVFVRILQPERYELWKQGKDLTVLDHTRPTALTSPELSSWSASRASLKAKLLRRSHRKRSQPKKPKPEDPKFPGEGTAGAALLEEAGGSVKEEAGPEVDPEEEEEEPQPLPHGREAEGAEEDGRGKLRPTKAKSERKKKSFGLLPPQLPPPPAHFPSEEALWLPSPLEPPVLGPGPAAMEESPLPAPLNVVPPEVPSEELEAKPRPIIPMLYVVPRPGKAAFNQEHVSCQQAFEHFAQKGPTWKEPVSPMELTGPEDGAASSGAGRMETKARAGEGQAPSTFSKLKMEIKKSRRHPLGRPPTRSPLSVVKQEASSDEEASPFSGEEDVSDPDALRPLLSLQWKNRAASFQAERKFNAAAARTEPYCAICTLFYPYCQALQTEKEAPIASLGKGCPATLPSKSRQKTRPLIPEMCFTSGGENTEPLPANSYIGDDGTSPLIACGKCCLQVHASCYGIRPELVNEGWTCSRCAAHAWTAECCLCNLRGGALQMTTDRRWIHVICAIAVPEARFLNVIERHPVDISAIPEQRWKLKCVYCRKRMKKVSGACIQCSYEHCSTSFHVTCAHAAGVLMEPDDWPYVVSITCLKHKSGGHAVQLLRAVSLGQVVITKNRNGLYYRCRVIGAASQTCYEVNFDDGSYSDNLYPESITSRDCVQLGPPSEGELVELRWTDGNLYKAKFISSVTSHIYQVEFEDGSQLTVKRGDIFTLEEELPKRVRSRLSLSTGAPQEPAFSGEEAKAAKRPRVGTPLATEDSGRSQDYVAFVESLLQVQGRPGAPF

[8] = system: KDM5B; details: cited from earlier work
[9] = target: TET2CD (Homo sapiens, UniProt Q6N021)
[10] = system: BBOX1; details: read-out: IC50 BBOX1; [2OG] 40 µM, enzyme 25 nM; ref SI 4 (main 75); cited from earlier work
[11] = target: PHD3; details: ref SI 6 (main 76); cited from earlier work
[12] = system: FTO; details: NOMO-1, U937, MA9.3ITD; dot blot and LC-MS/MS; ref SI 12; cited from earlier work
[13] = target: T3, KDM4B; details: read-out: IC50 KDM4B; [2OG] 20 µM; ref SI 8 (main 64); cited from earlier work
[14] = target: PHD1; details: ref SI 6 (main 76); cited from earlier work
[15] = target: T4, KDM2A (Homo sapiens, UniProt Q9Y2K7); details: read-out: Ki (calculated) KDM2A; Cheng-Prussoff from reported IC50; ref 75 (SI ref 4)
T4 sequence (Q9Y2K7 1-1162): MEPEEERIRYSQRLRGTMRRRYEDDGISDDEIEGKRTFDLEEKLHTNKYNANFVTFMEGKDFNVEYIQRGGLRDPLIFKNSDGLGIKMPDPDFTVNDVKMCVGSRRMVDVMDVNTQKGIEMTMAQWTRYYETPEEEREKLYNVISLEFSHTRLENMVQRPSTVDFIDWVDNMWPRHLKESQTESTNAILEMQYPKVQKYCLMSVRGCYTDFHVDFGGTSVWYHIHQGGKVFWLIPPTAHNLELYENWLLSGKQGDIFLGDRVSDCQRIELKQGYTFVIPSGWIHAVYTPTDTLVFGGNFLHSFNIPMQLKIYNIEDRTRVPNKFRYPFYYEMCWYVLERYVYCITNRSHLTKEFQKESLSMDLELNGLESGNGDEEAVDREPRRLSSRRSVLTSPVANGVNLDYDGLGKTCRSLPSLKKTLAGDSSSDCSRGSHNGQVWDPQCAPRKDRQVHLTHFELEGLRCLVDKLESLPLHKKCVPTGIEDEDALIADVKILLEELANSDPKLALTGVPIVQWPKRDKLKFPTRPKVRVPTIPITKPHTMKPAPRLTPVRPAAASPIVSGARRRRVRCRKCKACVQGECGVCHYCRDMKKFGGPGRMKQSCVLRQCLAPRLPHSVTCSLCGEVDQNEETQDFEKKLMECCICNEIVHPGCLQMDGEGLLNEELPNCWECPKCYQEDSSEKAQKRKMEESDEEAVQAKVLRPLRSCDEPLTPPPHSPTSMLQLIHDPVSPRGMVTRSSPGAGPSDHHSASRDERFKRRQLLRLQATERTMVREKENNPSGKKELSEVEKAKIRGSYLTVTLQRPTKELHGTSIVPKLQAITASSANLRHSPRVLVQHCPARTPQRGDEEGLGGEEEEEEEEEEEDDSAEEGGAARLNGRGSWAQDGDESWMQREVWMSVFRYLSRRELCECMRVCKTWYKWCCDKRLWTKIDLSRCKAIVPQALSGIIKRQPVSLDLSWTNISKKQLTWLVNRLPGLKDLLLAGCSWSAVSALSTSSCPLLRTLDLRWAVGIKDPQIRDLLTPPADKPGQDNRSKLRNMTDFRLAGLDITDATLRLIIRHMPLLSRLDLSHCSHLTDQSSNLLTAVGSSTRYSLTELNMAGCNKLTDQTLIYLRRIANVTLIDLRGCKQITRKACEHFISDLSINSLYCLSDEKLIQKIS

[16] = system: PHD1, PHD2, PHD3; details: RCC4/VHLHA, Hep3B, MCF7; western blot; ref SI 4; cited from earlier work
[17] = system: FIH; details: read-out: IC50 FIH; [2OG] 100 µM, enzyme 1,000 nM; ref SI 4 (main 75); cited from earlier work
[18] = target: T5, TET1CD (Homo sapiens, UniProt Q8NFU7); assay: cell-based; details: U2OS, read-out: % inhibition of TET1 in cells at […]
T5 sequence (Q8NFU7 1418-2136): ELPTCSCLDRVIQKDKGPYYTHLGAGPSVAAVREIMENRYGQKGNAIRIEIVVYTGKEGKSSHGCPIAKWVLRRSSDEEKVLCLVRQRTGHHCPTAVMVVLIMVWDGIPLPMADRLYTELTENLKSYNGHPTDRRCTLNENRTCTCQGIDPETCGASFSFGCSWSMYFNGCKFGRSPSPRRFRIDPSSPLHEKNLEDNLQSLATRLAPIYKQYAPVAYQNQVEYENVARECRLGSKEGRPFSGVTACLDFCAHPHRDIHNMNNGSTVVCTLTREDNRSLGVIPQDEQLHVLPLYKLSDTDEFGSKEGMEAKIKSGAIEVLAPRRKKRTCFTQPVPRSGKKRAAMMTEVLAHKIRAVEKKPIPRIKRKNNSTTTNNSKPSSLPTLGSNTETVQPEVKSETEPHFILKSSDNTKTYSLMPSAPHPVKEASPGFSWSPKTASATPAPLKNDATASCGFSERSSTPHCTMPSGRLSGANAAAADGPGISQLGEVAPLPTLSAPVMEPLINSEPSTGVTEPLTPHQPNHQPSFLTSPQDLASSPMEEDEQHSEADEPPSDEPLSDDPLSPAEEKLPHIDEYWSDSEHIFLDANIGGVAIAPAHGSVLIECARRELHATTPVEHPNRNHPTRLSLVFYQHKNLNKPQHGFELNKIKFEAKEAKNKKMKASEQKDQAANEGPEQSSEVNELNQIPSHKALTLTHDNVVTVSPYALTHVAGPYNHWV

[19] = in vitro; details: human, Cellular pCC50 TET1CD, nuclear count by DAPI staining, 24 h; named compound dosed
[20] = target: T5, TET1CD

T1 sequence (O15550 whole entry): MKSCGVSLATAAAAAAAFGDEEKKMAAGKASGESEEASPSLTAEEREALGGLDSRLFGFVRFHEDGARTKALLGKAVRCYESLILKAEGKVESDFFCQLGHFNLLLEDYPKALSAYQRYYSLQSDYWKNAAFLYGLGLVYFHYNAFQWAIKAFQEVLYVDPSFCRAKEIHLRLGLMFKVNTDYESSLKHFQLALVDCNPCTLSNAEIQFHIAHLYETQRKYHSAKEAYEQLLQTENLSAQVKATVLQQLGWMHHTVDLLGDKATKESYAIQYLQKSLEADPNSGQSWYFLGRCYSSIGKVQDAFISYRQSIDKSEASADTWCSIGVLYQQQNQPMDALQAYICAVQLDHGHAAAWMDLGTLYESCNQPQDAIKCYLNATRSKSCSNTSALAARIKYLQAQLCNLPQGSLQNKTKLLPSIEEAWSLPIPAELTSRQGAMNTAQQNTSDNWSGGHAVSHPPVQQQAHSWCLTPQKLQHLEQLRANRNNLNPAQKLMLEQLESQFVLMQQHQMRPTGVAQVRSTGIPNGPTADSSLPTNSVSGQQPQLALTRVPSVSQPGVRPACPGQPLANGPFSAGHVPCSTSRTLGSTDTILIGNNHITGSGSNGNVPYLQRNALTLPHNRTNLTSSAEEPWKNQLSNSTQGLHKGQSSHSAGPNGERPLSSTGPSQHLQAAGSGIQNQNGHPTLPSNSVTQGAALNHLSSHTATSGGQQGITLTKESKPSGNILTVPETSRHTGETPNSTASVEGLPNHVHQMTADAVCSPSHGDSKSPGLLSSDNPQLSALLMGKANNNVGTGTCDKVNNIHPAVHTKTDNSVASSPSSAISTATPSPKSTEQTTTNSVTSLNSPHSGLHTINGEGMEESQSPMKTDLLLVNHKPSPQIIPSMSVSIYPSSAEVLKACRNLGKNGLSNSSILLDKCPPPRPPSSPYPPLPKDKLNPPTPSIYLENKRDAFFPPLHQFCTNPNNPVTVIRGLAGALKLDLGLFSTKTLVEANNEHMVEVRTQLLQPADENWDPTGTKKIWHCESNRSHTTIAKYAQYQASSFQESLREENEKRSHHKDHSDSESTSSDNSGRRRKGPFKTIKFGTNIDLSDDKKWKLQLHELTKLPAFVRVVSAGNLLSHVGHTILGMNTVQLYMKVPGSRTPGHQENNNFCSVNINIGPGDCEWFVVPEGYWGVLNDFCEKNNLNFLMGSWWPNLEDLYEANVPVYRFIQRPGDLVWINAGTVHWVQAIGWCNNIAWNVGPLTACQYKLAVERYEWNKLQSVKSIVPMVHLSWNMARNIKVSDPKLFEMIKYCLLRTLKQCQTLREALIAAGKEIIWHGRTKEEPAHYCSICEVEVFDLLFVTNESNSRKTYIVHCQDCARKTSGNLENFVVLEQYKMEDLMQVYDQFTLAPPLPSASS

O=C(O)CC[C@@H](O)C(=O)O [R-2HG, (2R)-hydroxyglutarate]
cellular inhibition ABH3 (in words) [1]: Inhibition | IC50 [2]: […] | Ki [3]: 43 µM | IC50 [4]: 350 µM | IC50 [5]: 180 µM | Ki [6]: 89 µM | Ki [7]: 53 µM | cellular inhibition KDM5B at 2.0 mM (in words) [8]: No inhibition | α-value TET2CD [9]: 11 ± 13 | IC50 [10]: 13200 µM | Ki [11]: 90 µM | cellular inhibition FTO (in words) [12]: Inhibition | IC50 [13]: 150 µM | Ki [14]: 1150 µM | Ki [15]: 74 µM | cellular inhibition PHD1–3 (in words) [16]: Putative inhibition of PHD

O=C(O)CC[C@H](O)C(=O)O [S-2HG, S-2-hydroxyglutarate]
Ki [3]: 43 µM | IC50 [17]: 189 µM | IC50 [4]: 750 µM | IC50 [5]: 180 µM | Ki [6]: 191 µM | Ki [7]: 158 µM | cellular inhibition KDM5B at 1.0 mM (in words) ([8]; U2OS, 1.0 mM, immunofluorescence, ref SI 10): No inhibition | IC50 [10]: 142 µM | IC50 [13]: 450 µM

CCCCCCCCOC(=O)[C@H](O)CCC(=O)O [octyl-(R)-2HG, R-Octyl-2-hydroxyglutarate]
inhibition at 1500 µM [18]: ~50% | CC50 at 24 h [19]: > 2000 µM | EC50 [20]: ~1500 µM | Cellular pEC50 TET1CD ([20]; U2OS, 24 h with Dox induction, 5hmC IF, named compound dosed, replicates in parentheses): 2.83 ± 0.09 (3)
